Reference: patent US6645903B2, “Fluoroborane salts comprising a reactive cation and uses thereof” (Colorado State University Research Foundation, priority 2000, dated 2003)
Blank lines part the entries; values can stand above or below the substance they belong to.

Tests used:
[1] = Experimental: Hexanes and an excess of trimethylaluminum were removed under vacuum.
A mixture of [CPh3][(CH3)3NB12F11] […] A mixture was stirred under a nitrogen atmosphere for 20 h.
The orange microcrystalline compound (CPh3)2B12F12 (0.195 g, 0.231 mmol) was treated with 2 ml of toluene solution of AlMe3 (0.161 g, 2.240 mmol). […] The mixture was stirred for additional 40 hours.

[2] = Stability in solution and on storage; format: physicochemical
Experimental: where R^1, R^2, Q, M^1, m, n, and q are those defined above. […] In addition, unlike many other aluminum metal catalysts, Compound of Formula IA has a relatively high solubility in aliphatic hydrocarbon solvents. For example, the compound AlMe2(1-Dd-CB11F11), where Dd is dodecyl, is soluble in hexanes and methylcyclohexane and stable for at least 10 days at 25° C.
A suspension of CPh3(1-Et-CB11F11) (0.412 g, 0.67 mmol) in pentane (40 ml) was treated with a solution of Si(i-Pr)3H (0.215 g, 1.36 mmol, 2 equiv.) in pentane (10 ml) for 20 hours at room temperature. The mixture was treated with more Si(i-Pr)3H (0.56 g, 3.54 mmol) for another 20 hours. (Note, that a large excess of Si(i-Pr)3H (˜7 equiv.) required for the reaction to go to completion. A slightly pink pentane solution was filtered from a small amount of red-brown oily solid (˜20 mg, which upon dissolving of in acetonitile was identified as a mixture of CPh3(1-Et-CB11F11) and [Si(i-Pr)3(CD3CN)][1-Et-CB11F11]. The volume of the pentane solution was reduced to ˜5 ml, which caused the formation of white solid. The solid was separated by filtration, washed three times with 1 ml of pentane and dried under nitrogen atmosphere inside the glove box. The yield of Si(i-Pr)3(1-Et-CB11F11) as an off-white crystalline solid was 0.198 g (56%). […]

[3] = Zirconocene catalyzed selective dimerization of 1-hexene; conditions: for turnovers number within the first five minutes: co-catalyst with Cp2ZrMe2, first five minutes
Experimental: A solution of Al(CH3)2(1-[…]-CB11F11) (6.1 mg, 10.8 μmol) in 0.28 ml of methylcyclohexane was treated with a solution of Cp2ZrMe2 (2.3 mg, 9.1 μmol) in 1-hexene (3.654 g). The resulted mixture was stirred under a nitrogen atmosphere and the samples were taken from the reaction mixture after 5 minutes and 55 minutes. According to ^1H NMR spectra of the reaction mixtures approximately 33% of 1-hexene were reacted within 5 minutes, and approximately 99% of 1-hexene were reacted within 55 minutes. The reaction was exothermic as indicated by the significant self-heating of the reaction mixture during the reaction. The reaction products were analyzed by ^1H, ^13C NMR and GC-MS. According to the analysis the reaction mixture contained 83% of 1-hexene dimerization products (more than 95% of 2-butyl-1-octene) and 17% of 1-hexene isomerization products (the distribution of hexene isomers was as follows: E-2 hexene-56%, Z-2 hexene-26%, E-3 hexene-15%, and Z-3 hexene-3%). The total turnovers number of the activated zirconocene catalyst was calculated to be 4780 (87 TON·min^−1). The turnovers number within the first five minutes of the reaction was approximately 315 TON·min^−1

[4] = Polymerization of ethylene in hexanes; conditions: hexanes solution, 24° C., 703 torr ethylene, 18 h
Experimental: A suspension of [CPh3][1-C12H25-CB11F11] (5.0 mg) in 0.5 ml of methylcyclohexane-d14 was treated with 0.5 ml of methylcyclohexane-d14 solution of Al(CH3)3 (2.2 mg) for 20 h. […] The filtrate was diluted with 7 ml of hexanes and transferred into a 50 ml Kontes tube. The solution was treated with 703 torr of ethylene for 18 h at 24° C. and small amount of white solid was formed. The mixture was treated with 3 ml of methanol for 20 minutes. A solid polyethylene was collected (3 mg) by filtration and characterized by DSC (Tm=126° C.).

[5] = Polymerization of ethylene with one equivalent of Cp2ZrMe2; conditions: with Cp2ZrMe2, hexanes, 660 torr ethylene, from ethylene pressure decrease
Experimental: A suspension of [CPh3][1-C12H25-CB11F11] (5.0 mg) in 0.5 ml of methylcyclohexane-d14 was treated with 0.5 ml of methylcyclohexane-d14 solution of Al(CH3)3 (2.2 mg) for 20 h. […] The filtrate was diluted with 7 ml of hexanes and transferred into a 50 ml Kontes tube. The solution was treated with 1 ml of hexanes solution of Cp2ZrMe2 (1.3 mg). The mixture was treated with 660 torr of ethylene. The ethylene pressure was decreased to 470 torr within 5 minutes due to the formation of polyethylene (white solid). More ethylene (812 torr) was added to the mixture and the ethylene pressure was decreased to 295 torr within the next 2 hours. The mixture was quenched with 5 ml of methanol and stirred for 20 minutes. A solid polyethylene was collected (210 mg) by filtration and characterized by DSC (Tm=129° C.). The catalytic activity during the first 5 minutes (good agitation) was calculated based on the ethylene pressure decrease and was at least 150 kg PE/mol Zr·h·atm.

[6] = Alkylation of benzene with 1-hexene; conditions: benzene + 1-hexene, 25 hours
Experimental: A mixture of Al(CH3)2(1-CH3-CB11F11) (2.5 mg, 4.4 μmol), benzene (0.964 g, 12.4 mmol) and 1-hexene (0.224 g, 2.7 mmol) was stirred for 25 hours under a nitrogen atmosphere. […] A GC-MS analysis of the reaction mixture indicated the formation of monohexylbenzenes (29%), dihexylbenzenes (20%) and trihexylbenzenes (51%). The relative amounts of 2-phenylhexane and 3-phenylhexane were 70% and 30%, respectively. Total turnovers number of aluminum alkyl catalyst was calculated to be approximately 606 (24 TON/h).

[7] = Arene-olefin coupling of toluene-d8 with ethylene; conditions: toluene-d8, 656 torr ethylene, 14.5 hours, 24° C.
Experimental: Compounds of Formula IA are useful in a variety of organic reactions including in an arene-olefin coupling reaction. Thus, when the above reaction was repeated under one atmosphere of ethylene (CH2═CH2), a GC-MS analysis of the reaction mixture after 14.5 hr at 24° C. indicated the catalytic formation of all three positional isomers (i.e., the ortho (47%), meta (35%), and para (18%) isomers) of C6D4(CD3)(CH2CH2D) (the number of turnovers in this particular experiment was approximately 60-70. Without being bound any theory, the proposed catalytic scheme, which includes the catalytic activation of aromatic C—H bonds and the catalytic insertion of ethylene into an aluminum-aryl bond, is shown in FIG. 1 in a generic scheme using C6H6 as the substrate instead of C6D5CD3 for simplicity (the coordinated fluorocarborate anion (i.e., Q moiety) has also been omitted from the scheme for simplicity). It should be appreciated that the AlPh2^+1 species shown in FIG. 1 may in fact be a mixture of AlPh2^+1 and AlMePh^+1 species.
A compound Al(CH3)2(1-CH3-CB11F11) (2 mg) was dissolved in 1 ml of toluene-d8 and transferred into a sealable NMR tube. The solution was degassed under vacuum and treated with 656 torr of ethylene for 14.5 hours at 24° C. Proton NMR spectrum of the solution indicated the formation of ethyltoluene. […]

[8] = cited from earlier work
[9] = similar transformation, comparison value; cited from earlier work
[10] = cited from earlier work; remark: listed apart in the source

- solubility in acetonitrile-d3 [1]: dissolved
- solubility in toluene [1]: not soluble
Substance: (AlMe2)2B12F12

- stable in solution ([2]; hexanes and methylcyclohexane, 25° C.): at least 10 days
Substance: Al(CH3)2(1-C12H25-CB11F11)
- total turnovers number of the activated zirconocene catalyst ([3]; co-catalyst with Cp2ZrMe2, 1-hexene, 55 minutes): 4780
- turnover rate over whole reaction ([3]; co-catalyst with Cp2ZrMe2, 55 minutes): 87 TON·min^−1
- turnovers number within the first five minutes [3]: 315 TON·min^−1
- turnovers number within the first five minutes ([3]; listed as Al(CH3)2(1-C2H25-CB11F11)): approximately 315 TON·min^−1
- 1-hexene reacted ([3]; within 5 minutes): approximately 33%
- 1-hexene reacted ([3]; within 55 minutes): approximately 99%
- activity for polymerization of ethylene [4]: approximately 33 g PE/mol Al·h·at
- catalytic activity during the first 5 minutes [5]: at least 150 kg PE/mol Zr·h·atm

Substance: Al(CH3)2(1-CH3-CB11F11)
- total turnovers number of aluminum alkyl catalyst [6]: approximately 606
- turnover rate [6]: 24 TON/h
- number of turnovers (TON), formation of ethyltoluene [7]: approximately 66
- number of turnovers (TON), formation of ethyltoluene ([7]; listed as AlMe2(1-Me-CB11F11)): 60-70

- solubility in acetonitrile-d3 [1]: completely dissolved
- solubility in toluene [1]: not soluble
Substance: Al(CH3)2((CH3)3NB12F11)

- sensitivity to traces of water ([2]; solid, storage under nitrogen): extremely sensitive
Substance: Si(i-Pr)3(1-Et-CB11F11)

Substance: methylalurnoxane [MAO]
- solubility in aliphatic hydrocarbon solvents [8]: limited solubilities
- activity, conventional co-catalyst [9]: 30 TON ·min^−1
- total turnovers number of the catalyst, conventional co-catalyst [9]: 500
- stability when stored in solution [10]: not stable
